Measurements taken from ChEMBL document CHEMBL5465560, “Selectivity Literature for EUbOPEN Chemogenomic Library” (2024).

Tests used:
[1] = target: Tyrosine-protein kinase HCK (Homo sapiens) (UniProt P08631); assay: Selectivity interaction (KinomeScan (DiscoverX)) EUB0000229b HCK; conditions: at 10 µM
[2] = target: Casein kinase I isoform alpha (Homo sapiens, UniProt P48729); assay: Selectivity interaction (KinomeScan (DiscoverX)) EUB0000595a CSNK1A1; conditions: at 10 µM
Focal adhesion kinase 1 = Focal adhesion kinase 1 (Homo sapiens, UniProt Q05397); assay: Selectivity interaction (KinomeScan (DiscoverX)) EUB0000045b PTK2
[3] = target: B2 bradykinin receptor (Homo sapiens) (UniProt P30411); assay: Selectivity interaction (Eurofins CEREP Diversity Profile (receptors and ion channels)) EUB0000279b BDKRB2; conditions: at 10 µM
[4] = target: T1, Serine/threonine-protein kinase Sgk3 (Homo sapiens) (UniProt Q96BR1); assay: Selectivity interaction (KinomeScan (DiscoverX)) EUB0001049a SGK3; conditions: at 1 µM
T1 sequence (whole entry): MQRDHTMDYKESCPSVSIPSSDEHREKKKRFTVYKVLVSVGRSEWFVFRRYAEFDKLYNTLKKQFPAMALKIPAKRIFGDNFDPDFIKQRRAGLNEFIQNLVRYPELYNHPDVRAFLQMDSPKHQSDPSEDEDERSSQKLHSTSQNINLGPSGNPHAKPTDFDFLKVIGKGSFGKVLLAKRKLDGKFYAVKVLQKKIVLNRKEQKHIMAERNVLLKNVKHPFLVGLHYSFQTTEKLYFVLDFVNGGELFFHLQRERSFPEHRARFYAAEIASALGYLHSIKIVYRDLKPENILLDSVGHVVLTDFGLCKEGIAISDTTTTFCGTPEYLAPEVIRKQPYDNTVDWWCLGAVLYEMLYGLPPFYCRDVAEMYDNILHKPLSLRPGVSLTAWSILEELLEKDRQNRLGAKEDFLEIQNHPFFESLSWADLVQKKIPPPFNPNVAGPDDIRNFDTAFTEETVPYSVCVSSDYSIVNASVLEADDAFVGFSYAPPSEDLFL

[5] = target: Serine/threonine-protein kinase pim-2 (Homo sapiens, UniProt Q9P1W9); assay: Selectivity interaction (KinomeScan (DiscoverX)) EUB0000607a PIM2; conditions: at 10 µM
[6] = target: T2, Serine/threonine-protein kinase D2 (Homo sapiens) (UniProt Q9BZL6); assay: Selectivity interaction (KinomeScan (DiscoverX)) EUB0000607a PRKD2; conditions: at 10 µM
T2 sequence (whole entry): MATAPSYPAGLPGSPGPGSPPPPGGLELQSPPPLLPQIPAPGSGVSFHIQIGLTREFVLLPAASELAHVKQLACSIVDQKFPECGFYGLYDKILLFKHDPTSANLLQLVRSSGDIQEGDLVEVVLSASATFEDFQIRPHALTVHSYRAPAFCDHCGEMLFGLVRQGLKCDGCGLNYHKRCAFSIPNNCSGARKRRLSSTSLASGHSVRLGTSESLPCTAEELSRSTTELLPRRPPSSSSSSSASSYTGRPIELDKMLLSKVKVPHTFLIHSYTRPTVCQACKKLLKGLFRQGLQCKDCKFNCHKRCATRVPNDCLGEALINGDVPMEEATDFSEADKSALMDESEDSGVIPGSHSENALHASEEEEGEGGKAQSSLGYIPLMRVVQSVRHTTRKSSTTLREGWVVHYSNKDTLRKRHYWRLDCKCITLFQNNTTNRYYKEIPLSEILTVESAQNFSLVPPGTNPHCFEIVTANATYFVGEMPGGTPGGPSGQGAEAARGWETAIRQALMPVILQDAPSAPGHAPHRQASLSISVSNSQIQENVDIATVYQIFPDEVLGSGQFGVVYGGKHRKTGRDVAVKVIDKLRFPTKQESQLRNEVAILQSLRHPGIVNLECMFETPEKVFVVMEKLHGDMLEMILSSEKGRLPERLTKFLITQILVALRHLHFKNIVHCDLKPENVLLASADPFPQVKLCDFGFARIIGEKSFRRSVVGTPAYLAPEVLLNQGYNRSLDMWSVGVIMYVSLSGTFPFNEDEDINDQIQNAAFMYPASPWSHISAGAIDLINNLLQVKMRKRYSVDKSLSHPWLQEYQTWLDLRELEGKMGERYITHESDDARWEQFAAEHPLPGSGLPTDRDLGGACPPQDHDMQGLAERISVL

[7] = target: T3, STE20-related kinase adapter protein alpha (Homo sapiens) (UniProt Q7RTN6); assay: Selectivity interaction (ActivX KiNativ screen (kinase selectivity in THP-1 cell lysates)) EUB0000639a STRADA; type: subcellular; conditions: lysate, at 1 µM
T3 sequence (whole entry): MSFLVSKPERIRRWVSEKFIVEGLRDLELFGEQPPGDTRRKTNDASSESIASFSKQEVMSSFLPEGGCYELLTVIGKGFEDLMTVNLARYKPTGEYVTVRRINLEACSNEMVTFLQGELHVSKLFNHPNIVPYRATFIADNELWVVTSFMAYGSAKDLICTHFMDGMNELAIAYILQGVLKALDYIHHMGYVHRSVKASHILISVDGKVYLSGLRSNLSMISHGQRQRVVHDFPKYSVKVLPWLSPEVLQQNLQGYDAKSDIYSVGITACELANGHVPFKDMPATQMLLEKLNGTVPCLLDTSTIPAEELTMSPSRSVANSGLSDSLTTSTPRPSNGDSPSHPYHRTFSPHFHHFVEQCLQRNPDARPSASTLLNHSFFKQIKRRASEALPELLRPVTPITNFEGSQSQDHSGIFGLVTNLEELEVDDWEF

[8] = target: T4, Phosphatidylinositol 5-phosphate 4-kinase type-2 gamma (Homo sapiens) (UniProt Q8TBX8); assay: Selectivity interaction (KinomeScan (DiscoverX)) EUB0000655a PIP4K2C; conditions: at 10 µM
T4 sequence (whole entry): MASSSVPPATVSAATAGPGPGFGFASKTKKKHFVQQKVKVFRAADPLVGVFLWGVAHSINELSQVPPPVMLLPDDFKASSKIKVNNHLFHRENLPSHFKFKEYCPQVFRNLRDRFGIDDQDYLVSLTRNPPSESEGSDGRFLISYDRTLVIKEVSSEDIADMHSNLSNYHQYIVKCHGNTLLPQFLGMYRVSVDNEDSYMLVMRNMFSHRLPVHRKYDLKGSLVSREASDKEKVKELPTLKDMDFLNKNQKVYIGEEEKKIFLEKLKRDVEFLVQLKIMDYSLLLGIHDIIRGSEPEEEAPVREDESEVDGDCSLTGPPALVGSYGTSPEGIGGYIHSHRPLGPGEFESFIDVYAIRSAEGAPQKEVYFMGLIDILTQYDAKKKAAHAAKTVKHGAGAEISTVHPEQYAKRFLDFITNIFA

[9] = target: Calcium/calmodulin-dependent protein kinase type II subunit delta (Homo sapiens) (UniProt Q13557); assay: Selectivity interaction (KinomeScan (DiscoverX)) EUB0000092b CAMK2D; conditions: at 10 µM
Calcium/calmodulin-dependent protein kinase type II subunit delta (Homo sapiens), sequence (Q13557 whole entry): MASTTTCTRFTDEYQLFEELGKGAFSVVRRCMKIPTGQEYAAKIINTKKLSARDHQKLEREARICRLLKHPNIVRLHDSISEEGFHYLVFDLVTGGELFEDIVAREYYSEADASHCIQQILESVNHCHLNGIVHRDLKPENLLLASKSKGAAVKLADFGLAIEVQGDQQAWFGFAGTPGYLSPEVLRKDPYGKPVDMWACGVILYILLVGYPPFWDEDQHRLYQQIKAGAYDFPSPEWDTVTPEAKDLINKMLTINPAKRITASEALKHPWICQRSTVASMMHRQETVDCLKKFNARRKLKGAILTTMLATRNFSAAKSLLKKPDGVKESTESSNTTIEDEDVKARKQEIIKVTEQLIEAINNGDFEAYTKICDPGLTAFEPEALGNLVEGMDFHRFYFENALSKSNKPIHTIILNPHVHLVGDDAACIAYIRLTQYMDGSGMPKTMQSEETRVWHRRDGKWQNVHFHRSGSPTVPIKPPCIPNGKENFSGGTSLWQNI

Focal adhesion kinase 1, sequence (Q05397 2-1052 limits assumed): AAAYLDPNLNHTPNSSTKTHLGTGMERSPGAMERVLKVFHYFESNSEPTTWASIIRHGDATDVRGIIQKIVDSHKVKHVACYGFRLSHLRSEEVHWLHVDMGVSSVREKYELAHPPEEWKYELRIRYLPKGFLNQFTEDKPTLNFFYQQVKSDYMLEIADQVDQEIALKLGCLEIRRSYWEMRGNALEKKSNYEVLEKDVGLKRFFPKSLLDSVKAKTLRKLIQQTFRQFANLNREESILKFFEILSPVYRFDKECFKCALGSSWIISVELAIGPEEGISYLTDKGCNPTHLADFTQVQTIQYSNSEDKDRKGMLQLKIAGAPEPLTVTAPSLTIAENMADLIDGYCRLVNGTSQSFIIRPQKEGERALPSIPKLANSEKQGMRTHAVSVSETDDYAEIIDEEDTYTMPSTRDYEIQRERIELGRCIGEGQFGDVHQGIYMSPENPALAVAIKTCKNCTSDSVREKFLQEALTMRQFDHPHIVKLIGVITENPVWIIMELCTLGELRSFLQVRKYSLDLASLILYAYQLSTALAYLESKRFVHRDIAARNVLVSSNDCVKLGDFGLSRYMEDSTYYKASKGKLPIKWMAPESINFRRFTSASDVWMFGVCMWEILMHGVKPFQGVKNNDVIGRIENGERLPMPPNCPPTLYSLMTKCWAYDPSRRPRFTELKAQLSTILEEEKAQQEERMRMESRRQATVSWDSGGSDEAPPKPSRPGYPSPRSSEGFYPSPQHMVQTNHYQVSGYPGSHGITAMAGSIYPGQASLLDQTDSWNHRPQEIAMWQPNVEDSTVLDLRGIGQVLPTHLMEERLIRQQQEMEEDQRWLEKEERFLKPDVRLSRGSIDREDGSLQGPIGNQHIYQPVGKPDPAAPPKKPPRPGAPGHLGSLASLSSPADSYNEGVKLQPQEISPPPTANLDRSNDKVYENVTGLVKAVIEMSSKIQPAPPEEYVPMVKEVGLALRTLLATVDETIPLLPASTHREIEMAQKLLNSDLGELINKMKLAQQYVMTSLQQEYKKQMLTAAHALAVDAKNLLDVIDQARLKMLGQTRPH
Casein kinase I isoform alpha, sequence (P48729 2-337 limits assumed): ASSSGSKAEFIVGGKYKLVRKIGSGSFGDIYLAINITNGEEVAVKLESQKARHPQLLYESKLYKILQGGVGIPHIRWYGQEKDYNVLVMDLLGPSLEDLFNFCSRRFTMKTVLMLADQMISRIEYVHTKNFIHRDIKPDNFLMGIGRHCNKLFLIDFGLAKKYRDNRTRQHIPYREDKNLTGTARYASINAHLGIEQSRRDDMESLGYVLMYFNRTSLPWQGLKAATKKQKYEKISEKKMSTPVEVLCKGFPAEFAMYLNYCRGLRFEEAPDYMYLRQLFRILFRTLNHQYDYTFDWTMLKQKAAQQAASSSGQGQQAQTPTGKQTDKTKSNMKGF
B2 bradykinin receptor (Homo sapiens), sequence (P30411 whole entry): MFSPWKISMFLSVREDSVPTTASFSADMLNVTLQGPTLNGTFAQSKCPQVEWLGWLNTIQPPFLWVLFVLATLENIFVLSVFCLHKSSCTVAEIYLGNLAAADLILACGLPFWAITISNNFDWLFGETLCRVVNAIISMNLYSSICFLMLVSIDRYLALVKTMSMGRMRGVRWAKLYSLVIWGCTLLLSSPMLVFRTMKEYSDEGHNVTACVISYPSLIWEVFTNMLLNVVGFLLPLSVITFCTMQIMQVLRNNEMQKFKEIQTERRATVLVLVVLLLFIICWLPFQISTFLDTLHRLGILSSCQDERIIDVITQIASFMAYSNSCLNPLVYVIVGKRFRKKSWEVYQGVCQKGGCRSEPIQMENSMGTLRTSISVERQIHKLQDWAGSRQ
Serine/threonine-protein kinase pim-2, sequence (Q9P1W9 whole entry, looked up): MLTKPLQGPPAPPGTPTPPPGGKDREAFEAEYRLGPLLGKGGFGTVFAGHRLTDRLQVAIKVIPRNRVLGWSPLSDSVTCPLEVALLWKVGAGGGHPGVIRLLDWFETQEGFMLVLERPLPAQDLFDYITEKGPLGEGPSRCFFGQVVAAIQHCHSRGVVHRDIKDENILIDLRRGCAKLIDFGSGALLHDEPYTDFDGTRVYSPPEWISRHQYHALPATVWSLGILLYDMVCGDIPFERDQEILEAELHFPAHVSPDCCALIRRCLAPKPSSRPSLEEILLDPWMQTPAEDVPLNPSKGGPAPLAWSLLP
Tyrosine-protein kinase HCK (Homo sapiens), sequence (P08631 2-526 limits assumed): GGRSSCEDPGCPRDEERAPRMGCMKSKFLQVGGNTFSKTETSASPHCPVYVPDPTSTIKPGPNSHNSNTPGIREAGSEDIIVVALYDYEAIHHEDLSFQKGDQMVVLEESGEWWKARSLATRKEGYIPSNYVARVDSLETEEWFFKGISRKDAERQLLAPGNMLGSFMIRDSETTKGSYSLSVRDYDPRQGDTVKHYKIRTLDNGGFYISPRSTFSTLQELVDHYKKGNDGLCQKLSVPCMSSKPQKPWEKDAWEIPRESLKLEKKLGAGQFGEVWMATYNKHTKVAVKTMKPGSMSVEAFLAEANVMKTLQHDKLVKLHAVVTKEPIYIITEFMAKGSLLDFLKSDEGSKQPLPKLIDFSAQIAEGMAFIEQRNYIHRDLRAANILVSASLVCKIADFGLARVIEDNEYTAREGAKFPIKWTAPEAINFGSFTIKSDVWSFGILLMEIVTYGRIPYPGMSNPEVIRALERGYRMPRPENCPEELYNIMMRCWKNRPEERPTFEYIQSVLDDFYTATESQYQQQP

**Q.** For `COc1cc(N(C)c2ccnc3ccc(C(F)(F)F)cc23)cc(OC)c1OC`, which % binding [1] is on record?
**A.** Its % binding is 100%.

**Q.** How did the % of control [2] turn out when `COCC(=O)NC/C=C/c1ccc2ncnc(Nc3ccc(Oc4ccc(C)nc4)c(C)c3)c2c1` [CP-724714] was run?
**A.** Its % of control is 100%.

**Q.** How did the % of control (Focal adhesion kinase 1; at 1 µM) turn out when `C=CC(=O)Nc1cc(-n2c(=O)ccc3cnc4ccc(-c5ccc(NS(C)(=O)=O)cc5)cc4c32)ccc1C` was run?
**A.** Its % of control is 96%.

**Q.** What about the % of control (Focal adhesion kinase 1; at 10 µM) of the same compound?
**A.** Its % of control is 100%.

**Q.** With `CC(=O)c1cc(-c2ccccc2OCC2CC2)c2ncccn12` as the compound, how does the % of control [3] read?
**A.** Its % of control is 112%.

**Q.** `COc1cc(Nc2nc(C)cc(-c3cnn4nc(OC)ccc34)n2)cc(C(F)(F)F)c1` was tested. Which % of control [4] did it give?
**A.** Its % of control is 74%.

**Q.** For `CNC(=O)Nc1ccc(-c2nc(N3CC4CCC(C3)O4)c3cnn(C4CCC5(CC4)OCCO5)c3n2)cc1`, which % of control [5] is on record?
**A.** The % of control was 74%.

**Q.** And the % of control [6]?
**A.** The % of control was 100%.

**Q.** `CC[C@@H]1[C@H](F)C(=O)N[C@@H]1COc1nccc2cc(C(N)=O)c(OC)cc12` [ZIMLOVISERTIB] was tested. Which % of inhibition [7] did it give?
**A.** The % of inhibition was -7.6%.

**Q.** `CN(C)CCOc1ccc(-c2nc(-c3ccncc3)c(-c3ccc4c(c3)CC/C4=N\O)[nH]2)cc1` was tested. Which % of control [8] did it give?
**A.** Its % of control is 100%.

**Q.** Which % of control [9] does the source give for `CCC(=O)N1CCN(c2ccc(-n3c(=O)ccc4cnc5ccc(-c6cnc7ccccc7c6)cc5c43)cc2C(F)(F)F)CC1` here?
**A.** The % of control was 72%.
